Entries after “also recorded” stand apart in the source; their conditions may differ.
Key:
[1] = system: CD1 mice with experimental AMI (permanent coronary artery ligation); assay: Transthoracic echocardiography of cardiac remodeling after AMI (Example 4); format: in vivo, mouse
Description: (§1) Adult out-bred male CD1 mice (8-12 weeks of age) were supplied by Harlan Sprague Dawley (Indianapolis, Ind.). The experiments were conducted under the guidelines of laboratory animals for biomedical research published by National Institutes of Health (No. 85-23, revised 1996). The study protocol was approved by the Virginia Commonwealth University Institutional Animal Care and Use Committee. Experimental AMI was induced by permanent coronary artery ligation in order to induce a large non-reperfused infarct involving approximately 30% of the left ventricle and leading to an ischemic dilated cardiomyopathy (Mezzaroma et al. Proc Natl Acad Sci 2011—in press and Abbate et al. Circulation 2008; 117:2670-83). Briefly, mice were orotracheally intubated under anesthesia (pentobarbital 50 to 70 mg/kg), placed in the right lateral decubitus position, then subjected to a left thoracotomy, pericardiectomy, and ligation of the proximal left coronary artery. The chest was closed and the animals were allowed to recover. The mice surviving surgery were randomly assigned to the different groups of treatment (N=6-15 per group). Sham operations were performed wherein animals underwent the same surgical procedure without coronary artery ligation (N=4-8 per group).
The A2B AdoR antagonist, Compound A, was obtained from Gilead Sciences, Foster City, Calif. Mice were randomly assigned to treatment with Compound A (4 mg/kg) or matching dose of vehicle administered intraperitoneally (final volume 0.13 mL) every 12 hours for 14 days starting immediately after coronary artery ligation surgery. An additional group of mice received a lower dose of Compound A (2 mg/kg) to explore a dose-response relationship. Two additional groups of mice received Compound A (4 mg/kg) starting 1 hour after surgery to simulate a clinical scenario of treatment delay. […]
All mice underwent transthoracic echocardiography at baseline (before surgery), and at 7, 14 and 28 days after surgery (prior to sacrifice). […] This example measured the left ventricular (LV) end-diastolic and end-systolic areas at B-Mode and the LV end-diastolic diameter (LVEDD), LV end-systolic diameters (LVESD), LV anterior wall diastolic thickness (LVAWDT), and LV posterior wall diastolic thickness (LVPWDT) at M-Mode, as previously described (Abbate et al. Circulation 2008; 117:2670-83; Toldo et al. PloS One 2011; 6:e18102) and according to the American Society of Echocardiography recommendations (Gardin et al. J Am Soc Echocardiogr 2002; 15:272-90). LV fractional shortening (FS), LV ejection fraction (EF), LV mass and eccentricity (LVEDD/LVPWDT ratio) were calculated (Abbate et al. Circulation 2008; 117:2670-83; Toldo et al. PloS One 2011; 6:e18102; Gardin et al. J Am Soc Echocardiogr 2002; 15:272-90). The transmitral and left ventricular out flow tract Doppler spectra were recorded from an apical 4-chamber views, and the myocardial performance index (MPI or Tei index) was calculated as the […] of the isovolumetric contraction and relaxation time divided by the ejection time (Tei et al. Am J Cardiol 1995; 26:357-366). LV stroke volume was calculated using the Velocity-Time Integral (VTI) of the LV outflow tract flow multiplied by the LV outflow tract area, and cardiac output was calculated multiplying LV stroke volume by the heart rate (Abbate et al. Circulation 2008; 117:2670-83; Toldo et al. PloS One 2011; 6:e18102; Gardin et al. J Am Soc Echocardiogr 2002; 15:272-90). […]

[2] = system: CD1 mice with experimental AMI (permanent coronary artery ligation); assay: Survival after coronary artery ligation surgery (Example 4); format: in vivo, mouse; conditions: P=0.14; vehicle 50%
Description: as §1, with “The mice surviving surgery were randomly assigned to the different groups of treatment (N=6-15 per group). Sham operations were performed wherein animals underwent the same surgical procedure without coronary artery ligation (N=4-8 per group).” left out
Differences between the groups were analyzed using the one-way ANOVA followed by Bonferroni test. Changes in repeated measures of echocardiographic data were analyzed using the random effects ANOVA for repeated-measures to determine the main effect of time, group, and time-by-group interaction. […]

[3] = system: rats with MI (25 minutes coronary occlusion followed by reperfusion); assay: VT inducibility in rat model of post-MI remodeling (Example 6); format: in vivo; conditions: 5 weeks post-MI; total N 11
Description: (§2) The effects of Compound A in a rat model of post-MI remodeling and VT were determined. MI was caused by 25 minutes occlusion at the left anterior descending coronary ligation followed by reperfusion. One week later, rats were administered either vehicle or Compound A (100 mg/kg) once daily by oral gavage. Serial echocardiograms (ECHOs) to measure LV ejection fraction (LVEF), stroke volume and LV end systolic volume (LVESV) were obtained at baseline, 1 week and 5 week post-MI. Electrophysiological studies, optical mapping, histology and biomarker analysis were conducted at 5 week post-MI.
Ventricular tachycardia (VT) is a common cause of mortality in post-MI patients, even with current coronary revascularization treatment. In this rat model of post-MI remodeling, VT was consistently inducible in more than half of the animals. Thus, the effect of Compound A in VT inducibility was determined at 5 weeks post-MI.

[4] = system: rats with MI (25 minutes coronary occlusion followed by reperfusion); assay: Rat model of post-MI remodeling: serial echocardiograms (Example 6); format: in vivo
Description: as §2

caspase-1 = assay: Caspase-1 activity in heart tissue 72 hours after surgery (Example 4); format: in vivo, mouse; conditions: 4 mg/kg i.p. twice daily from coronary ligation
Description: Adult out-bred male CD1 mice (8-12 weeks of age) were supplied by Harlan Sprague Dawley (Indianapolis, Ind.). The experiments were conducted under the guidelines of laboratory animals for biomedical research published by National Institutes of Health (No. 85-23, revised 1996). The study protocol was approved by the Virginia Commonwealth University Institutional Animal Care and Use Committee. Experimental AMI was induced by permanent coronary artery ligation in order to induce a large non-reperfused infarct involving approximately 30% of the left ventricle and leading to an ischemic dilated cardiomyopathy (Mezzaroma et al. Proc Natl Acad Sci 2011—in press and Abbate et al. Circulation 2008; 117:2670-83). […]
An additional subset of mice was sacrificed 72 hours after surgery (N=4-6 per treatment group). […] The tissue activity of caspase-1 was determined by cleavage of a fluorogenic substrate (CaspACE, Promega, Madison, Wis.) (Abbate et al. Circulation 2008; 117:2670-83). […] Fluorescence was measured after 60 minutes and was expressed as arbitrary fluorescence units produced by one microgram of sample per minute (fluorescence/μg/min) and calculated as fold change compared to the caspase-1 activity in homogenates of the hearts of sham-operated mice.

## CCCn1c(=O)c2[nH]c(-c3cnn(Cc4cccc(C(F)(F)F)c4)c3)nc2n(CC)c1=O [Compound A, 3-ethyl-1-propyl-8-(1-(3-(trifluoromethyl)benzyl)-1H-pyrazol-4-yl)-1H-purine-2,6(3H,7H)-dione]
[1]; AMI mice
  myocardial diastolic/systolic performance (myocardial performance index): preservation
  right ventricular enlargement and dysfunction: less
[1]; LV systolic function significantly greater in Compound A group
  absolute difference in mean LVEF vs vehicle: 5%
[1]; at 28 days
  reduction of LV enlargement after AMI: approximately 40%
[1]; every 12 hours from surgery for 14 days, at 7 days, maintained at 14 and 28 days
  left and right ventricular enlargement and dysfunction: significant attenuation
[2]
  mice alive at 28 days after coronary artery ligation surgery: 75%
[3]
  No VT (number of animals): 10
  VT (number of animals): 1
[4]; 100 mg/kg once daily oral gavage from 1 week post-MI
  increase in LVESV: significantly reduced
[4]; 1 week post-MI (start of dosing), Compound A group
  LVEF: 53.1±3.2%
[4]; 5 weeks post-MI, 100 mg/kg once daily oral gavage from 1 week post-MI, vehicle 40.7±2.2
  LVEF: 55.6±2.6%
caspase-1
  caspase-1 activation / activity in the heart during AMI: prevented; also recorded: nearly complete reduction
